Laboratory results published in paper PMC9144480 (Pharmaceuticals, 2022).
Where two headings read alike, the source gives them in different places.

Assays:
[1] = test system: pseudovirus bearing SARS-CoV-2 S protein, delta (B.1.617.2) variant; experiment: microbe, parasite or virus in culture; format: cell-based; conditions: HEK-293T, read-out: IC50, inhibition of cell entry of pseudovirus (delta var.)
[2] = test system: SARS-CoV-2 spike protein pseudotyped VSV-ΔG; experiment: microbe, parasite or virus in culture; format: cell-based
[3] = Severe acute respiratory syndrome coronavirus 2, Vero C1008, read-out: IC50, inhibition of VSV-ΔG pseudovirus entry

SMILES | IC50 [1] [µM] | IC50 [2, 3] [µM] | IC50 ([2]; read-out: IC50, inhibition of VSV-ΔG pseudovirus entry) [µM]
CCN(CCO)CCCC(C)Nc1ccnc2cc(Cl)ccc12 (stereo not shown) [HCQ, hydroxychloroquine] | 75.1 | – | –
CN(C)c1ccc2nc3ccc(=[N+](C)C)cc-3sc2c1 [MeBlu, methylene blue] | 4.7 | 2.5 | 2.46
Nc1c(/N=N/c2ccc([N+](=O)[O-])cc2)c(S(=O)(=O)O)cc2cc(S(=O)(=O)O)c(/N=N/c3ccccc3)c(O)c12 [NBlBk, naphthol blue black] | 388 | – | –
O=S(=O)(O)c1ccc(N=Nc2c(O)ccc3cc(S(=O)(=O)O)ccc23)cc1 [SY(FD&C#6), sunset yellow FCF] | > 500 | > 250 | –
